Assay results as given in patent US20200352912A1, “ANTIMICROBIAL COMPOSITIONS AND METHODS OF USING THE SAME” (The Board Of Supervisors Of Louisiana State University And …, priority 2018, published 2020).

How the values were obtained:
[1] = test system: LPS-activated human macrophages; details: 100 nM; cited from earlier work
[2] = test system: S. aureus; experiment: colony phenotype on agar plates; format: cell-based, Staphylococcus aureus
Text: L-161, 982 inhibits activities associated with the electron transport chain including ATP production. In addition to the sulfonamide group, the chemical structure of L 161, 982 contains a urea group connected to two aryl groups (diarylurea) (FIG. 11). Urea derivatives are commonly used as herbicides, interfering with electron transport (17). […] SCVs typically lack a functional electron transport chain and cannot produce virulence factors such as hemolysins or the antioxidant pigment staphyloxanthin [reviewed in (19)]. […] These defects are all indicative of interruption of electron transport as carotenoid formation as well as toxin production is dependent on an active electron transport (18, 20, 21). During aerobic respiration, the force required for driving ATP synthesis requires a transmembrane electrical potential (membrane potential), which is generated by the electron transport chain.

[3] = test system: E. coli; experiment: spectrum of activity, bacterial growth; format: cell-based, Escherichia coli; details: 50 μg/ml, 6 h
Experimental: Bacterial growth was monitored for 6 h in medium alone or supplemented with 50 μg/ml of L-161, 982. Data shown is representative of three independent experiments.
Strains and growth conditions. The methicillin-resistant S. aureus strain NRS383 used in all experiments was obtained from the Network on Antimicrobial Resistance in S. aureus (NARSA) data bank. NRS383 is positive for the toxic shock syndrome toxin (tst) and 6-toxin genes. SJ-MRSA 6 and SJ-SA5 are methicillin-resistant (MRSA) and methicillin-sensitive (MSSA) clinical S. aureus strains respectively isolated from a patient's catheter. Other bacterial species used in this study include Escherichia coli (ATCC 25922, clinical isolate), S. epidermidis (ATCC 12228), Klebsiella pneumonia (ATCC 43816), Enterococcus faecalis (ATCC 51299, clinical isolate), and Streptococcus mutans (UA159, 12). S. mutans strain was maintained in brain heart infusion (BHI) broth while the other bacterial species were maintained in Luria-Bertani broth. Frozen stocks were obtained at −80° C. and streaked onto agar plates at 37° C. prior to use. A single colony was transferred to 10 ml of culture broth and shaken at 37° C. overnight. On the following day, the overnight culture was diluted 1:100 in fresh growth medium and shaken at 37° C. for 3 h to obtain cells in mid-log growth phase. S. mutans cultures were grown without agitation in the presence of 5% CO2. […]

[4] = biological target: FP (Homo sapiens, UniProt P43088); details: cited from earlier work
[5] = test system: S. aureus; experiment: ATP detection assay (BacTiter-Glo); format: cell-based, Staphylococcus aureus; details: 12.5-200 μg/ml, 5 h
Experimental: S. aureus was incubated with various concentrations of L-161,982 in a 96-well plate in triplicate for 5 h at 37° C. ATP production was measured in samples normalized to viable cell number using the BacTiter-Glo™ Assay (Promega) and measuring luminescence. Background luminescence from media alone samples was subtracted from experimental samples. Results represent the means+/−standard deviation. Data shown are representative of two independent experiments. ** p<0.01; *** p<0.001 control vs drug-treated.
ATP detection assay. S. aureus was diluted 100-fold in 10 ml of fresh Mueller Hinton II broth which was used as the inoculum. The inoculum was incubated with various concentrations of L-161,982 (12.5-200 μg/ml) in a 96-well plate in triplicate for 5 h at 37° C. After incubation, cells L-161,982 were stained with LIVE/DEAD Baclight bacterial viability stain (Invitrogen) and viable cells were counted. Samples were normalized to viable cell number before transferring to an opaque-walled 96-well plate. An equal volume of BacTiter-Glo™ Reagent (Promega) was added. The plate was allowed to develop for 5 min at room temperature. Luminescence was quantified using a BioTek Synergy 2 plate reader. A media alone control was used to detect background luminescence.

[6] = test system: C. albicans pre-formed biofilm; experiment: pre-formed mature biofilm (XTT, CFU); format: cell-based, Candida albicans; details: all concentrations tested, 24 h treatment
Experimental: The effect of L-161, 982 on pre-formed mature biofilms was tested. Mono- and dual-species C. albicans and/or S. aureus biofilms were grown on 96-well plates for 24 h before being treated with the indicated concentration of L-161, 982 for a further 24 h. After treatment, metabolic activity of biofilms was quantified by the XTT assay (A) and then biofilms were disrupted to determine live colony forming units (CFU) (B). The results are cumulative of three independent experiments with duplicate samples. Statistics were performed using One-way ANOVA with the Tukey post-hoc test for the XTT assay. The Mann-Whitney U test was used to analyze CFU data. Significance is indicated as follows: ns—not significant, *P<0.05; *** P<0.001. Error bars represent standard deviation.
Following growth as described above, microbes were washed in phosphate-buffered saline (PBS) by centrifugation, counted on a hemocytometer, and adjusted to 2×10^7 CFU/ml in RPMI buffered with MOPS (165 mM). […]
The XTT reduction assay was used to determine the metabolic activity of biofilms following treatment with L-161, 982 (17). Briefly, wells were washed once in PBS, and plates incubated at 37° C. for 2 h with 200 μl XTT working reagent (0.5 mg/ml XTT and 1 μM Menadione) and the resulting absorbance measured at 490 nm on a microplate spectrophotometer. […]

[7] = test system: HCA-7 colon cancer cells; details: 10 μM; cited from earlier work

Chain of FP (P43088 whole entry): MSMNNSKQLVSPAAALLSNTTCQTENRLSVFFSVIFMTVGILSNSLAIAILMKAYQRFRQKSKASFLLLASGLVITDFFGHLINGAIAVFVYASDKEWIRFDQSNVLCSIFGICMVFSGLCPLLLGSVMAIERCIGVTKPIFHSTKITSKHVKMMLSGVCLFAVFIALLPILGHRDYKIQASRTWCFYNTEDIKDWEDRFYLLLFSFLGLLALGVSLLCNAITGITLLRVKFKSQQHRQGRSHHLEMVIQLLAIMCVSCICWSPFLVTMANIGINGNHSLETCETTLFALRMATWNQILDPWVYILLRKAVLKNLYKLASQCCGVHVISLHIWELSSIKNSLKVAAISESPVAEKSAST

In the case of CCCCc1nn(-c2ccccc2C(F)(F)F)c(=O)n1Cc1ccc(-c2ccccc2S(=O)(=O)NC(=O)c2sccc2C)cc1 [L-161, 982, N-[[4′-[[3-Butyl-1,5-dihydro-5-oxo-1-[2-(trifluoromethyl)phenyl]-4H-1,2,4-triazol-4-yl]methyl][1,1′-biphenyl]-2-yl]sulfonyl]-3-methyl-2-thiophenecarboxamide], the “effect on anti-inflammatory action of PGE2” value [1] is given as “reverses the anti-inflammatory action of PGE2”, the colony phenotype [2] is given as “grew as small colonies” and the growth inhibitory activity [3] is given as “No inhibitory effects”. For the same compound, the Ki [4] was 5.6 µM, the ATP production [5] was “significantly inhibited ATP production” and the “metabolic activity of pre-formed biofilm” value [6] was “no significant inhibitory effects”. For the same compound, the “effect on PGE2-induced cell proliferation” value [7] was “blocks PGE2-induced cell proliferation”.
